Data reported in ChEMBL document CHEMBL3507680, “University of Dundee, Gates Library screen for HepG2 cell viability”.

Assay: Human HepG2 cell viability assay in 384 well format
Format: toxicity, cell-based
Parameters: dose 125 nL, time 70.5 hour; concentration not given beside the values
Conditions: HepG2 cells, read-out: Inhibition

| Structure (SMILES) | cytotoxicity at 70.5 h [%] |
| --- | --- |
| COc1c(C)cnc(CN2CCOC(CNc3cccnn3)C2)c1C (configuration not stated) | 3.14 |
| CCN(C(=O)c1cccc2c1OCO2)c1ccccc1 | -4.98 |
| c1cncc(CN2CC[C@@H]3[C@@H]2CCN3Cc2ccc3c(c2)OCO3)c1 | 0.903 |
| CCn1nc(CC(C)C)cc1C(=O)N1CC[C@@H](O)C1 | -3.86 |
| Cn1ncnc1CNC1CCCc2cc(F)ccc21 (configuration not stated) | -11.4 |
| CN(C)C(=O)COCc1nnc2n1CCN(Cc1ccoc1)C2 | -3.1 |
| Cc1cc(C(N)=O)c2c(Br)cccc2n1 | -13.6 |
| COc1c(CNC2(c3noc(C)n3)CCC2)c(C(C)C)nn1C | -0.972 |
| CC(C)NC(=O)N1CCN(S(=O)(=O)C2CC2)CC2(CC(=O)N(C)C2)C1 (configuration not stated) | 0.827 |
| COc1ccc(OC)c(-n2nnnc2SCC2CCCCO2)c1 (configuration not stated) | -6.66 |
| Cc1nn(C)c(Cl)c1CNCc1cccnc1N1CCCCC1 | -2.26 |
| Cc1cc(NCc2cccc(C#N)c2)ccc1C(N)=O | 2.79 |
| CCN(CC)C(=O)c1ccn(COc2ccccc2)n1 | -7.93 |
| CC(C)c1ncc2c(n1)CN(Cc1ccc(C(N)=O)cc1)CC2 | 24.1 |
| NC(=O)C1CCCN(C(=O)c2ccc(-n3ccnc3)cc2)C1 (configuration not stated) | -5.88 |
| CCc1cc(NCCc2cc(F)cc(F)c2)n2nccc2n1 | -2.57 |
| CN(c1cccnn1)C1CCN(C(=O)c2n[nH]c3c2CCC3)CC1 | -4.09 |
| CC(SCC(=O)N(C)CC(=O)NC1CC1)c1cc(F)ccc1F (configuration not stated) | 14.2 |
| Cc1csc(N2CCN(C(=O)CCn3cccn3)CC2)n1 | 3.65 |

| Structure (SMILES) | cytotoxicity at 70.5 h [%] |
| --- | --- |
| CCc1nc(CN2CCCN(C(=O)c3cn[nH]c3CC)CC2)cs1 | 12.4 |
| CC(C)C(C)N(C(=O)c1cc2c([nH]c1=O)CCCC2=O)C1CC1 (configuration not stated) | -7.9 |
| Cc1cccc(C2CCCN2Cc2nc(N)nc(N(C)C)n2)c1C (configuration not stated) | -9.17 |
| Cc1ncsc1CCN(C)Cc1cc2n(n1)CCN(Cc1ncc[nH]1)C2 | 47.1 |
| CCOc1ccc(CN(CCOC)C(=O)c2ccncc2Cl)cc1 | -3.6 |
| Cc1cccc(CN2C[C@@H]3OCCN(CC(=O)N(C)C)[C@@H]3C2)c1 | -8.16 |
| CN1CC(=O)N(c2cccc(F)c2)CC12CCN(CC1CC1)C2 (configuration not stated) | -3.68 |
| COC(=O)CC1CCCCN1CC(=O)Nc1cc(F)ccc1F (configuration not stated) | -4.9 |
| Cc1nc(N2CCOCC2)sc1C(=O)NCC(C)(C)N1CCCCC1 | -2 |
| Cc1nc(-c2cn(CCN)nn2)n(-c2ccc3c(c2)CCC3)n1 | -4.36 |
| CCc1nc(-c2cncnc2C2CCNC2)no1 (configuration not stated) | 18 |
| CCc1csc(C2CCCN(C(=O)c3ccco3)C2)n1 (configuration not stated) | 17.1 |
| COCC(=O)NCC1Cn2nnc(-c3ccoc3)c2CO1 (configuration not stated) | -6.95 |
| Cc1nn(C)cc1CCC(=O)N1CCCC(n2cncn2)C1 (configuration not stated) | 6.4 |
| c1cc(CN2CCC3(CCOCC3COCC3CC3)CC2)co1 (configuration not stated) | -4.78 |
| CN1CCC(C(=O)N2CCN(Cc3cccc(Cl)c3)CC2)CC1=O (configuration not stated) | 3.2 |
| O=C(NC1CCCc2c1[nH]c1ccc(F)cc21)c1n[nH]c2c1CCCC2 (configuration not stated) | 27 |
| CC(C)n1ccnc1CN1CCCN(C(=O)c2cnn(C)c2)CC1 | -0.464 |
| COC(=O)c1ccc2c(-c3ccnc(NCCO)n3)c[nH]c2c1 | -1.71 |

| Structure (SMILES) | cytotoxicity at 70.5 h [%] |
| --- | --- |
| CCC(C)(C)C1CCCN1C(=O)c1coc(S(=O)(=O)NC)c1 (configuration not stated) | 6.9 |
| CC(C)(O)CN1CCN(C(=O)COCc2ccccc2Cl)CC1 | -0.918 |
| CCc1nc(C2CCCN2Cc2nc(C(C)(C)C)no2)no1 (configuration not stated) | 2.43 |
| C[C@H]1C[C@@H]2CCN(Cc3nccs3)C[C@H]2O1 | -9.2 |
| Cc1nc2cc(C(=O)N(CCN(C)C)CCN(C)C)ccc2n1C | -7.57 |
| CCN(CC)c1ncc(CNC2CCc3nc(C)nn3C2)s1 (configuration not stated) | 4.79 |
| CN1CC(c2cc(O)nc(NCc3cccc(F)c3)n2)CC1=O (configuration not stated) | -10.4 |
| Cc1nc2[nH]cnc(NCCN3CCCC3)c-2n1 | -9.67 |
| CC1CCCN(Cc2ccc(CNC(=O)NCc3ccon3)cc2)C1 (configuration not stated) | 2.37 |
| COc1ncccc1CN1CCc2[nH]nc(C(=O)N(C)C)c2C1 | -11.3 |
| COc1nn(C)cc1C(=O)NCC(=O)Nc1cccnc1 | -10.6 |
| CC(C)C(=O)N1CCC(CNc2nc(C(C)C)nc3c2cnn3C)CC1 | -9.27 |
| c1coc(-c2nc(CN3CCn4c(nnc4C4CC4)C3)cs2)c1 | -8.26 |
| O=C(NCCCn1ccnc1)c1csc2c1CCCC2 | 15.4 |
| O=C(COc1cccc2c1CCC2=O)NCc1ccccc1F | -2.34 |
| COCCCNC(=O)CN(C)C(C)c1nc(C)no1 (configuration not stated) | -3.18 |
| Cc1ccc(S(C)(=O)=O)cc1C(=O)N1CCCC(n2cncn2)C1 (configuration not stated) | -3.44 |
| CC(C)C(C)(C#N)NC(=O)Cn1cc(I)cn1 (configuration not stated) | -3.37 |
| CC(C)c1nc(C2CCCN2C(=O)c2cc(Cl)c[nH]2)no1 (configuration not stated) | -2.12 |
